Data taken from US6737383B1, “Herbicidal oxadiazolidines” (priority 1999, dated 2004).

Legend:
wild oat = assay: Test B pre/postemergence wild oat; format: in vivo, Avena fatua
Summary of the method: (§1)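 Response is a visual 0-to-10 score relative to untreated plants, where 0 means no effect and 10 means complete control, taken twelve to sixteen days after application. Treatments went onto soil at planting and onto foliage of 1- to 4-leaf plants, using a surfactant-containing non-phytotoxic solvent.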

blackgrass = assay: Test B pre/postemergence blackgrass; format: in vivo, Alopecurus myosuroides
Summary of the method: as §1

morningglory = assay: Test B pre/postemergence morningglory; format: in vivo, Ipomoea hederacea
Summary of the method: as §1

sugar beet = assay: Test B pre/postemergence sugar beet; format: in vivo, Beta vulgaris
Summary of the method: as §1

crabgrass = assay: Test B pre/postemergence crabgrass; format: in vivo, Digitaria sanguinalis
Summary of the method: as §1

giant foxtail = assay: Test B pre/postemergence giant foxtail; format: in vivo, Setaria faberii
Summary of the method: as §1

soybean = assay: Test B pre/postemergence soybean; format: in vivo, Glycine max
Summary of the method: as §1

cocklebur = assay: Test B pre/postemergence cocklebur; format: in vivo, Xanthium strumarium
Summary of the method: as §1

pigweed = assay: Test B pre/postemergence pigweed; format: in vivo, Amaranthus retroflexus
Summary of the method: as §1

corn = assay: Test B pre/postemergence corn; format: in vivo, Zea mays
Summary of the method: as §1

bamyardgrass = assay: Test B flood test barnyardgrass; format: in vivo, Echinochloa crus-galli
Summary of the method: (§2)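 Plants were grown to the 2-leaf stage before treatment with test chemical, then held in a greenhouse for twelve to sixteen days. Injury was visually rated against untreated controls on a 0–10 scale, where 0 is no effect and 10 is complete control.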

velvetleaf = assay: Test B pre/postemergence velvetleaf; format: in vivo, Abutilon theophrasti
Summary of the method: as §1

purple nutsedge = assay: Test B pre/postemergence purple nutsedge; format: in vivo, Cyperus rotundus
Summary of the method: as §1

smallflower flatsedge = assay: Test B flood test smallflower flatsedge; format: in vivo, Cyperus difformis
Summary of the method: as §2

rape = assay: Test B pre/postemergence rape; format: in vivo, Brassica napus
Summary of the method: as §1

surinam grass = assay: Test B pre/postemergence surinam grass; format: in vivo, Brachiaria decumbens; settings: Postemergence
Summary of the method: as §1

[1] = Postemergence, Rate 62 g/ha, scale 0 to 10, 0 is no effect, 10 is complete control
[2] = Postemergence, Rate 125 g/ha, scale of 0 to 10 where 0 is no effect and 10 is complete control
[3] = Preemergence, Rate 125 g/ha, scale of 0 to 10 where 0 is no effect and 10 is complete control
[4] = Preemergence, Rate 250 g/ha, scale 0 (no effect) to 10 (complete control)
[5] = Rate 62 g/ha, Preemergence, scale 0 to 10
[6] = Rate 250 g/ha, Postemergence, scale 0 to 10, 0 is no effect, 10 is complete control
[7] = Rate 500 g/ha, Postemergence, scale 0 to 10, 0 is no effect, 10 is complete control
[8] = Rate 500 g/ha, Preemergence, scale 0 to 10 (0 no effect, 10 complete control)
[9] = Pre-emergence, Rate 62 g/ha, scale 0 to 10, 0 is no effect, 10 is complete control
[10] = Rate 125 g/ha, Pre-emergence section (flood test species), scale 0 to 10, 0 no effect, 10 complete control
[11] = Rate 250 g/ha, Pre-emergence (flood test species), scale 0 to 10, 0 is no effect, 10 is complete control
[12] = Rate 500 g/ha, Pre-emergence section of Table B, 0 to 10 scale (0 no effect, 10 complete control)

CC(C)N(C(=O)n1oc(=O)n(CC2=NOCCO2)c1=O)c1ccc(Cl)cc1 [Compound 740]
6: Wild oats plant response rating (wild oat; [8]) | Plant response rating, Blackgrass (blackgrass; [3]) | Soybean plant response rating (soybean; [7])
7: Blackgrass plant response rating (blackgrass; [7]) | Morningglory plant response rating (morningglory; [7]) | Giant foxtail plant response rating (giant foxtail; [2])
8: Blackgrass plant response rating (blackgrass; [4]) | Giant foxtail plant response rating (giant foxtail; [6]) | Redroot pigweed plant response rating (pigweed; [7])
4: Blackgrass plant response rating (blackgrass; [6]) | Plant response rating, Crabgrass (crabgrass; [3]) | Crabgrass plant response rating (crabgrass; [5]) | Giant foxtail plant response rating (giant foxtail; [5]) | Soybean plant response rating (soybean; [6]) | Redroot pigweed plant response rating (pigweed; [6])
3: Plant response rating, Blackgrass (blackgrass; [1]) | Blackgrass plant response rating (blackgrass; [2]) | Blackgrass plant response rating (blackgrass; [5]) | Morningglory plant response rating (morningglory; [2]) | Morningglory plant response rating (morningglory; [6]) | Sugarbeets plant response rating (sugar beet; [4]) | Soybean plant response rating (soybean; [2]) | Cocklebur plant response rating (cocklebur; [6]) | Cocklebur plant response rating (cocklebur; [7]) | Redroot pigweed plant response rating (pigweed; [5]) | Velvetleaf plant response rating (velvetleaf; [8]) | Plant response rating, Rape (rape; [3])
5: Sugarbeets plant response rating (sugar beet; [8]) | Rape plant response rating (rape; [4])
9: Blackgrass plant response rating (blackgrass; [8]) | Crabgrass plant response rating (crabgrass; [4]) | Crabgrass plant response rating (crabgrass; [6]) | Crabgrass plant response rating (crabgrass; [7]) | Crabgrass plant response rating (crabgrass; [8]) | Plant response rating, Giant foxtail (giant foxtail; [3]) | Giant foxtail plant response rating (giant foxtail; [4]) | Giant foxtail plant response rating (giant foxtail; [7]) | Plant response rating, Redroot pigweed (pigweed; [3]) | Redroot pigweed plant response rating (pigweed; [4])
2: Wild oats plant response rating (wild oat; [4]) | Plant response rating, Morningglory (morningglory; [1]) | Sugarbeets plant response rating (sugar beet; [6]) | Sugarbeets plant response rating (sugar beet; [7]) | Plant response rating, Giant foxtail (giant foxtail; [1]) | Plant response rating, Soybean (soybean; [1]) | Redroot pigweed plant response rating (pigweed; [2]) | Velvetleaf plant response rating (velvetleaf; [6]) | Velvetleaf plant response rating (velvetleaf; [7]) | B. signalgrass plant response rating (surinam grass; Rate 500 g/ha, scale 0 to 10, 0 is no effect, 10 is complete control)
0: Plant response rating, Wild oats (wild oat; [1]) | Wild oats plant response rating (wild oat; [2]) | Plant response rating, Wild oats (wild oat; [3]) | Wild oats plant response rating (wild oat; [5]) | Wild oats plant response rating (wild oat; [6]) | Wild oats plant response rating (wild oat; [7]) | Plant response rating, Morningglory (morningglory; [3]) | Morningglory plant response rating (morningglory; [4]) | Morningglory plant response rating (morningglory; [5]) | Morningglory plant response rating (morningglory; [8]) | Plant response rating, Sugarbeets (sugar beet; [1]) | Sugarbeets plant response rating (sugar beet; [2]) | Sugarbeets plant response rating (sugar beet; [5]) | Plant response rating, Crabgrass (crabgrass; [1]) | Crabgrass plant response rating (crabgrass; [2]) | Plant response rating, Soybean (soybean; [3]) | Soybean plant response rating (soybean; [4]) | Soybean plant response rating (soybean; [5]) | Soybean plant response rating (soybean; [8]) | Plant response rating, Cocklebur (cocklebur; [1]) | Cocklebur plant response rating (cocklebur; [2]) | Plant response rating, Cocklebur (cocklebur; [3]) | Cocklebur plant response rating (cocklebur; [4]) | Cocklebur plant response rating (cocklebur; [5]) | Cocklebur plant response rating (cocklebur; [8]) | Plant response rating, Redroot pigweed (pigweed; [1]) | Plant response rating, Corn (corn; [1]) | Corn plant response rating (corn; [2]) | Plant response rating, Corn (corn; [3]) | Corn plant response rating (corn; [4]) | Corn plant response rating (corn; [5]) | Corn plant response rating (corn; [6]) | Corn plant response rating (corn; [7]) | Corn plant response rating (corn; [8]) | Barnyardgrass plant response rating (bamyardgrass; [9]) | Barnyardgrass plant response rating (bamyardgrass; [10]) | Barnyardgrass plant response rating (bamyardgrass; [11]) | Barnyardgrass plant response rating (bamyardgrass; [12]) | Plant response rating, Velvetleaf (velvetleaf; [1]) | Velvetleaf plant response rating (velvetleaf; [2]) | Plant response rating, Velvetleaf (velvetleaf; [3]) | Velvetleaf plant response rating (velvetleaf; [4]) | Velvetleaf plant response rating (velvetleaf; [5]) | Plant response rating, Nutsedge (purple nutsedge; [1]) | Nutsedge plant response rating (purple nutsedge; [2]) | Plant response rating, Nutsedge (purple nutsedge; [3]) | Nutsedge plant response rating (purple nutsedge; [4]) | Nutsedge plant response rating (purple nutsedge; [5]) | Nutsedge plant response rating (purple nutsedge; [6]) | Nutsedge plant response rating (purple nutsedge; [7]) | Nutsedge plant response rating (purple nutsedge; [8]) | S. Flatsedge plant response rating (smallflower flatsedge; [9]) | S. Flatsedge plant response rating (smallflower flatsedge; [10]) | S. Flatsedge plant response rating (smallflower flatsedge; [11]) | S. Flatsedge plant response rating (smallflower flatsedge; [12]) | Plant response rating, Rape (rape; [1]) | Rape plant response rating (rape; [2]) | Rape plant response rating (rape; [5]) | Rape plant response rating (rape; [6]) | Rape plant response rating (rape; [7]) | Plant response rating, B. signalgrass (surinam grass; Rate 62 g/ha, scale 0 to 10, 0 is no effect, 10 is complete control) | B. signalgrass plant response rating (surinam grass; Rate 125 g/ha, scale of 0 to 10 where 0 is no effect and 10 is complete control) | B. signalgrass plant response rating (surinam grass; Rate 250 g/ha, scale 0 to 10, 0 is no effect, 10 is complete control)
10: Giant foxtail plant response rating (giant foxtail; [8]) | Redroot pigweed plant response rating (pigweed; [8])
